Test results from patent US10966426B2, “Herbicidal compositions comprising phenylpyrimidines” (BASF SE, priority 2016, dated 2021).

What was measured:
Assay type in all cases: in vivo
Ambrosia elatior = test: greenhouse pre-emergence treatment, AMBEL
Excerpt: (§1) The culture containers used were plastic pots containing loamy sand with approximately 3.0% of humus as substrate. The seeds of the test plants were sown separately for each species.
(§2) For the pre-emergence treatment, the active compounds, suspended or emulsified in water, were applied directly after sowing by means of finely distributing nozzles. The containers were irrigated gently to promote germination and growth and subsequently covered with transparent plastic hoods until the plants had rooted. This cover caused uniform germination of the test plants unless this was adversely affected by the active compounds.
(§3) Depending on the species, the plants were kept at 10-25° C. and 20-35° C., respectively.
(§4) The test period extended over 2 to 4 weeks. During this time, the plants were tended and their response to the individual treatments was evaluated.
(§5) Evaluation was carried out using a scale from 0 to 100. 100 means no emergence of the plants, or complete destruction of at least the above-ground parts, and 0 means no damage or normal course of growth. A good herbicidal activity is given at values of at least 70, and very good herbicidal activity is given at values of at least 85.
(§6) The respective stated components A and B, and if appropriate, C were formulated as a 10% by weight strength emulsion concentrate and, with addition of the amount of solvent system, introduced into the spray liquor used for applying the active compound. In the examples, the solvent used was water.
(§7) In the examples below, using the method of S. R. Colby (1967) “Calculating synergistic and antagonistic responses of herbicide combinations”, Weeds 15, p. 22ff., the value E, which is expected if the activity of the individual active compounds is only additive, was calculated. E=X+Y−(X·Y/100) where X=effect in percent using herbicide A at an application rate a; • Y=effect in percent using herbicide B at application rate b; • E=expected effect (in %) of herbicide A+herbicide B at application rates a+b.

Stellaria media = test: greenhouse pre-emergence treatment, STEME; conditions: 20 DAT
Excerpt: as §1, §2, §3, §4, §5, §6, §7

Papaver rhoeas = test: greenhouse pre-emergence treatment, PAPRH; conditions: 20 DAT
Excerpt: as §1, §2, §3, §4, §5, §6, §7

Helianthus annuus = test: greenhouse pre-emergence treatment, HELAN; conditions: HELAN, 20 DAT
Excerpt: as §1, §2, §3, §4, §5, §6, §7

Avena fatua = test: greenhouse pre-emergence treatment, AVEFA; conditions: 20 DAT
Excerpt: as §1, §2, §3, §4, §5, §6, §7

Galium aparine [1] = test: greenhouse pre-emergence treatment, GALAP
Excerpt: as §1, §2, §3, §4, §5, §6, §7

Brachiaria decumbens = test: greenhouse pre-emergence treatment, BRADC; conditions: Urochloa decumbens, 480 h, 20 DAT
Excerpt: as §1, §2, §3, §4, §5, §6, §7

Lolium multiflorum = test: greenhouse pre-emergence treatment, LOLMU; conditions: Lolium multiflorum, 480 h, 20 DAT
Excerpt: as §1, §2, §3, §4, §5, §6, §7

Bromus sterilis = test: greenhouse pre-emergence treatment, BROST; conditions: BROST, 20 DAT; for pest or weed control at 62.5 g/ha: Bromus sterilis, 480 h
Excerpt: as §1, §2, §3, §4, §5, §6, §7

Alopecurus myosuroides = test: greenhouse pre-emergence treatment, ALOMY
Excerpt: as §1, §2, §3, §4, §5, §6, §7

Setaria viridis = test: greenhouse pre-emergence treatment, SETVI; conditions: for % activity: SETVI
Excerpt: as §1, §2, §3, §4, §5, §6, §7

Galium aparine [2] = test: greenhouse post-emergence treatment, GALAP; conditions: Galium aparine, 480 h, Table X12, 20 DAT, GALAP, solo isoproturon (SC 500 g/l) 500 gai/ha
Method in brief: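 Foliar application to greenhouse-grown plants 3–15 cm tall in humus-containing loamy sand; response assessed on a 0–100 scale after 2–4 weeks, with Colby's E=X+Y−(X·Y/100) as the additive expectation.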

Echinocloa crus-galli = test: greenhouse post-emergence treatment, ECHCG; conditions: Table X12, 20 DAT, ECHCG, solo isoproturon (SC 500 g/l) 125 gai/ha
Experimental: as §1
For the post-emergence treatment, the test plants were grown to a plant height of from 3 to 15 cm, depending on the plant habit, and only then treated with the active compounds which had been suspended or emulsified in water. To this end, the test plants were either sown directly, and grown in the same containers, or they were first grown separately as seedlings and transplanted into the test containers a few days prior to treatment.
as §3, §4, §5, §6, §7

Digitaria sanguinalis = test: greenhouse pre-emergence treatment, DIGSA; conditions: Digitaria sanguinalis, 480 h, 20 DAT
Excerpt: as §1, §2, §3, §4, §5, §6, §7

Apera spica-venti = test: greenhouse pre-emergence treatment, APESV; conditions: 20 DAT
Excerpt: as §1, §2, §3, §4, §5, §6, §7

Poa annua = test: greenhouse pre-emergence treatment, POAAN; conditions: 20 DAT
Excerpt: as §1, §2, §3, §4, §5, §6, §7

Polygonum convolvulus = test: greenhouse pre-emergence treatment, POLCO; conditions: Fallopia convolvulus, 480 h, 20 DAT, saflufenacil solo 12.5 gai/ha
Excerpt: as §1, §2, §3, §4, §5, §6, §7

[3] = dimethenamid solo (EC 720 g/l), 62.5 gai/ha
[4] = solo dimethenamid (EC 720 g/l) 62.5 gai/ha
[5] = Table X13, 20 DAT, solo isoproturon (SC 500 g/l) 125 gai/ha
[6] = solo quinmerac (WP 50%) 62.5 gai/ha
[7] = solo quinmerac (WP 50%) 250 gai/ha
[8] = solo saflufenacil (SC 342 g/l) 6.25 gai/ha, 20 DAT
[9] = solo saflufenacil (SC 342 g/l) 25 gai/ha, 20 DAT

COCC(C)N(C(=O)CCl)c1c(C)csc1C (stereo not drawn) [dimethenamid]
% activity (Ambrosia elatior; AMBEL, 20 DAT, solo dimethenamid (EC 720 g/l) 125 gai/ha): 20%
% activity (Ambrosia elatior; AMBEL, 20 DAT, solo dimethenamid (EC 720 g/l) 250 gai/ha): 30%
pest or weed control at 31.25 g/ha (Ambrosia elatior; Ambrosia artemisiifolia, 480 h, AMBEL, 20 DAT, solo dimethenamid (EC 720 g/l) 31.25 gai/ha): 0%
pest or weed control at 62.5 g/ha (Ambrosia elatior; Ambrosia artemisiifolia, 480 h, AMBEL, 20 DAT, solo dimethenamid (EC 720 g/l) 62.5 gai/ha): 0%
pest or weed control at 125 g/ha (Ambrosia elatior; Ambrosia artemisiifolia, 480 h, dimethenamid solo (EC 720 g/l), 125 gai/ha, 20 DAT, AMBEL): 20%
pest or weed control at 250 g/ha (Ambrosia elatior; Ambrosia artemisiifolia, 480 h, dimethenamid solo (EC 720 g/l), 250 gai/ha, 20 DAT, AMBEL): 30%
% activity (Stellaria media; dimethenamid solo (EC 720 g/l), 31.25 gai/ha): 80%
% activity (Stellaria media; [3]): 90%
% activity (Papaver rhoeas; [4]): 90%
% activity (Papaver rhoeas; [3]): 90%
% activity (Papaver rhoeas; dimethenamid solo (EC 720 g/l), 125 gai/ha): 90%
% activity (Helianthus annuus; solo dimethenamid (EC 720 g/l) 250 gai/ha): 35%
plant injury at 250 g/ha (Helianthus annuus; Helianthus annuus, 480 h, dimethenamid solo (EC 720 g/l), 250 gai/ha): 35%
% activity (Avena fatua; AVEFA, solo dimethenamid (EC 720 g/l) 62.5 gai/ha): 10%
pest or weed control at 62.5 g/ha (Avena fatua; Avena fatua, 480 h, dimethenamid solo (EC 720 g/l), 62.5 gai/ha, AVEFA): 10%
pest or weed control at 125 g/ha (Avena fatua; Avena fatua, 480 h, dimethenamid solo (EC 720 g/l), 125 gai/ha, AVEFA): 50%
pest or weed control at 250 g/ha (Avena fatua; Avena fatua, 480 h, dimethenamid solo (EC 720 g/l), 250 gai/ha, AVEFA): 65%
% activity (Galium aparine [1]; GALAP, 20 DAT, solo dimethenamid (EC 720 g/l) 31.25 gai/ha): 50%
% activity (Galium aparine [1]; GALAP, 20 DAT, solo dimethenamid (EC 720 g/l) 62.5 gai/ha): 60%
% activity (Galium aparine [1]; GALAP, 20 DAT, solo dimethenamid (EC 720 g/l) 125 gai/ha): 50%
pest or weed control at 31.25 g/ha (Galium aparine [1]; Galium aparine, 480 h, dimethenamid solo (EC 720 g/l), 31.25 gai/ha, 20 DAT, GALAP): 50%
pest or weed control at 62.5 g/ha (Galium aparine [1]; Galium aparine, 480 h, dimethenamid solo (EC 720 g/l), 62.5 gai/ha, 20 DAT, GALAP): 60%
pest or weed control at 125 g/ha (Galium aparine [1]; Galium aparine, 480 h, dimethenamid solo (EC 720 g/l), 125 gai/ha, 20 DAT, GALAP): 50%
pest or weed control at 31.25 g/ha (Brachiaria decumbens; dimethenamid solo (EC 720 g/l), 31.25 gai/ha, BRADC): 60%
pest or weed control at 62.5 g/ha (Lolium multiflorum; dimethenamid solo (EC 720 g/l), 62.5 gai/ha, LOLMU): 80%
% activity (Bromus sterilis; [4]): 80%
pest or weed control at 62.5 g/ha (Bromus sterilis; [3]): 80%
% activity (Alopecurus myosuroides; dimethenamid solo (EC 720 g/l), 125 gai/ha, 20 DAT): 60%
% activity (Alopecurus myosuroides; dimethenamid solo (EC 720 g/l), 250 gai/ha, 20 DAT): 65%

CC(C)c1ccc(NC(=O)N(C)C)cc1 [isoproturon]
% activity (Setaria viridis; [5]): 0%
% activity (Setaria viridis; Table X13, 20 DAT, solo isoproturon (SC 500 g/l) 500 gai/ha): 75%
pest or weed control at 500000 µg/mL, 500 g/ha (Galium aparine [2]): 30%
% activity (Echinocloa crus-galli): 40%
% activity (Alopecurus myosuroides; [5]): 0%

Cc1cnc2c(C(=O)O)c(Cl)ccc2c1 [quinmerac]
pest or weed control at 250 g/ha (Ambrosia elatior; Ambrosia artemisiifolia, 480 h, AMBEL, 20 DAT, solo quinmerac (WP 50%) 250 gai/ha): 0%
pest or weed control at 31.25 g/ha (Digitaria sanguinalis; DIGSA, solo quinmerac (WP 50%) 31.25 gai/ha): 0%
pest or weed control at 62.5 g/ha (Digitaria sanguinalis; DIGSA, solo quinmerac (WP 50%) 62.5 gai/ha): 0%
pest or weed control at 125 g/ha (Digitaria sanguinalis; DIGSA, solo quinmerac (WP 50%) 125 gai/ha): 0%
% activity (Apera spica-venti; [6]): 0%
% activity (Apera spica-venti; [7]): 25%
% activity (Stellaria media; [7]): 0%
% activity (Papaver rhoeas; [7]): 95%
plant injury at 125 g/ha (Helianthus annuus; Helianthus annuus, 480 h, solo quinmerac (WP 50%) 125 gai/ha): 0%
plant injury at 62.5 g/ha (Helianthus annuus; Helianthus annuus, 480 h, quinmerac solo (WP 50%), 62.5 gai/ha): 0%
pest or weed control at 31.25 g/ha (Avena fatua; Avena fatua, 480 h, AVEFA, solo quinmerac (WP 50%) 31.25 gai/ha): 0%
pest or weed control at 125 g/ha (Avena fatua; Avena fatua, 480 h, AVEFA, solo quinmerac (WP 50%) 125 gai/ha): 0%
pest or weed control at 125 g/ha (Galium aparine [1]; Galium aparine, 480 h, GALAP, 20 DAT, solo quinmerac (WP 50%) 125 gai/ha): 95%
pest or weed control at 62.5 g/ha (Brachiaria decumbens; quinmerac solo (WP 50%), 62.5 gai/ha, BRADC): 0%
pest or weed control at 125 g/ha (Brachiaria decumbens; quinmerac solo (WP 50%), 125 gai/ha, BRADC): 0%
pest or weed control at 250 g/ha (Brachiaria decumbens; quinmerac solo (WP 50%), 250 gai/ha, BRADC): 30%
pest or weed control at 250 g/ha (Lolium multiflorum; LOLMU, solo quinmerac (WP 50%) 250 gai/ha): 0%
pest or weed control at 62.5 g/ha (Bromus sterilis; [6]): 0%
% activity (Poa annua; [6]): 0%
% activity (Poa annua; solo quinmerac (WP 50%) 125 gai/ha): 0%
% activity (Poa annua; [7]): 0%

CC(C)N(C)S(=O)(=O)NC(=O)c1cc(-n2c(=O)cc(C(F)(F)F)n(C)c2=O)c(F)cc1Cl [saflufenacil]
percent weed control (herbicidal activity, 0-100 scale) at 6.25 g/ha (Ambrosia elatior; Ambrosia artemisiifolia, 480 h, 20 DAT, saflufenacil solo 6.25 gai/ha): 45%
pest or weed control at 3.75 g/ha (Ambrosia elatior; Ambrosia artemisiifolia, 480 h, Table X11, 20 DAT, AMBEL, solo saflufenacil (title: flumioxazin, WG 51%) 3.75 gai/ha): 0%
inhibition at 12.5 g/ha (Polygonum convolvulus): 90%
inhibition at 6.25 g/ha (Digitaria sanguinalis; saflufenacil solo 6.25 gai/ha): 10%
inhibition at 25 g/ha (Digitaria sanguinalis; saflufenacil solo 25 gai/ha): 35%
% activity (Setaria viridis; [8]): 25%
% activity (Setaria viridis; [9]): 65%
inhibition at 6.25 g/ha (Setaria viridis; Setaria viridis, 480 h, 20 DAT, saflufenacil solo 6.25 gai/ha): 25%
inhibition at 12.5 g/ha (Setaria viridis; Setaria viridis, 480 h, 20 DAT, saflufenacil solo 12.5 gai/ha): 40%
inhibition at 25 g/ha (Setaria viridis; Setaria viridis, 480 h, 20 DAT, saflufenacil solo 25 gai/ha): 65%
inhibition at 50 g/ha (Setaria viridis; Setaria viridis, 480 h, 20 DAT, saflufenacil solo 50 gai/ha): 90%
inhibition at 6.25 g/ha (Avena fatua; Avena fatua, 480 h, saflufenacil solo 6.25 gai/ha): 0%
% herbicidal activity (weed control, 0-100 scale) at 12.5 g/ha (Galium aparine [1]; Galium aparine, 480 h, 20 DAT, saflufenacil solo 12.5 gai/ha): 80%
pest or weed control at 30 g/ha (Galium aparine [1]; Galium aparine, 480 h, Table X11, 20 DAT, GALAP, solo saflufenacil (title: flumioxazin, WG 51%) 30 gai/ha, read-out: % activity): 65%
% herbicidal activity (weed control, 0-100 scale) at 6.25 g/ha (Brachiaria decumbens; saflufenacil solo 6.25 gai/ha): 10%
% herbicidal activity (weed control, 0-100 scale) at 12.5 g/ha (Brachiaria decumbens; saflufenacil solo 12.5 gai/ha): 20%
inhibition at 6.25 g/ha (Lolium multiflorum; saflufenacil solo 6.25 gai/ha): 10%
% activity (Alopecurus myosuroides; [8]): 0%
% activity (Alopecurus myosuroides; solo saflufenacil (SC 342 g/l) 12.5 gai/ha, 20 DAT): 0%
% activity (Alopecurus myosuroides; [9]): 0%
